Measurements from PubChem BioAssay (NCI).
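Cells were grown in 96-well plates and exposed to each compound for 48 hours at five concentrations; endpoints were interpolated linearly between bracketing concentrations, or set to the highest concentration if not reached. GI50 = concentration required for 50% inhibition of growth. TGI: total growth inhibition.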

Columns and labels:
Test in all cases: NCI anticancer screen, dose series, 48 h
OVCAR-3 ovarian = system: OVCAR-3 ovarian
HOP-92 NSCLC = system: HOP-92 NSCLC
SF-295 CNS = system: SF-295 CNS
PC-3 prostate = system: PC-3 prostate
MCF7 breast = system: MCF7 breast
786-0 renal = system: 786-0 renal
SNB-19 CNS = system: SNB-19 CNS
OVCAR-5 ovarian = system: OVCAR-5 ovarian
OVCAR-4 ovarian = system: OVCAR-4 ovarian
ACHN renal = system: ACHN renal

SMILES	GI50 (OVCAR-3 ovarian) [µM]	TGI (OVCAR-3 ovarian) [µM]	GI50 (HOP-92 NSCLC) [µM]	TGI (HOP-92 NSCLC) [µM]	GI50 (SF-295 CNS) [µM]	TGI (SF-295 CNS) [µM]	GI50 (PC-3 prostate) [µM]	TGI (PC-3 prostate) [µM]	GI50 (MCF7 breast) [µM]	TGI (MCF7 breast) [µM]	GI50 (786-0 renal) [µM]	TGI (786-0 renal) [µM]	GI50 (SNB-19 CNS) [µM]	TGI (SNB-19 CNS) [µM]	GI50 (OVCAR-5 ovarian) [µM]	TGI (OVCAR-5 ovarian) [µM]	GI50 (OVCAR-4 ovarian) [µM]	TGI (OVCAR-4 ovarian) [µM]	GI50 (ACHN renal) [µM]	TGI (ACHN renal) [µM]
COc1ccc(/C=C/C(=O)/C=C(O)/C=C/c2ccc(OC)c(OC)c2)cc1OC	2.8	> 100	14.1	98.4	6.36	> 100	2.88	> 100	0.493	> 100	3.03	25.7	28	> 100	6.42	46.4	27.6	> 100	6.97	> 100
O=C(CN1CCN(C(=O)c2ccco2)CC1)Nc1ccc(Cl)cc1C(=O)c1ccccc1Cl	5.53	17.5	4.45	24.1	3.13	15.4	2.75	16.3	5.31	21.7	13.6	42.5	12.1	94.7	24	63	5.91	31.5	10.3	43.7
CO/C(=C1/NC(=O)C(Cc2ccc(O)c(Br)c2)N(C)C(=O)C(C)NC(=O)CCC/C=C(\C)CCC(C)OC1=O)c1ccccc1 (stereo not given)	< 0.0164	0.0376	0.0246	0.0612	0.0502	0.17	0.036	0.595	< 0.0165	1.9	0.0263	0.0692	0.031	1.96	0.0445	> 35	0.0225	–	0.0192	0.0623
c1ccc(CC(Nc2cccnc2)c2ccccc2)cc1 (stereo not given)	–	34.3	–	35.9	–	43.3	–	76.9	–	> 100	–	54.4	–	> 100	–	98.8	–	> 100	–	> 100
O=C(Nc1cccc(-n2cc(-c3ccncc3)c(-c3ccc(Cl)c(O)c3)n2)c1)Nc1ccc(Cl)c(Cl)c1	1.05	3.15	0.679	1.91	–	–	0.834	> 32.5	1.06	> 32.5	7.22	> 32.5	1.46	> 32.5	2.4	> 32.5	1.69	> 32.5	1.04	> 32.5
COc1cc(C)[nH]c(=O)c1CNC(=O)c1c(C)n([C@H](C)C2CCN(CC(F)(F)F)CC2)c2ccccc12	43.3	> 100	78.5	> 100	31.8	> 100	47.4	> 100	25.7	> 100	60.3	> 100	74.5	> 100	> 100	> 100	41.7	> 100	–	–
